Source: patent publication US20250032490A1, “THERAPEUTIC REGIMENS FOR TREATMENT OF PAROXYSMAL NOCTURNAL HEMOGLOBINURIA” (Achillion Pharmaceuticals, Inc., priority 2017, published 2025)

Test system: rabbit erythrocytes
Assay: CAP-mediated hemolysis assay with rabbit erythrocytes
Type: cell-based
Conditions: Oryctolagus cuniculus, Erythrocyte; for inhibition at 0.00234 µM: Compound 1 0.00234 μM; for inhibition at 0.00469 µM: Compound 1 0.00469 μM; for inhibition at 0.00938 µM: Compound 1 0.00938 μM; for inhibition at 0.0188 µM: Compound 1 0.0188 μM; for inhibition at 0.0375 µM: Compound 1 0.0375 μM; for inhibition at 0.075 µM: Compound 1 0.075 μM; for inhibition at 0.15 µM: Compound 1 0.15 μM; for inhibition at 0.75 µM: Compound 1 0.75 μM
Protocol: Inhibition was analyzed by the method of Prichard and Shipman (Prichard, M. N. and C. Shipman, Jr. A Three-Dimensional Model to Analyze Drug-Drug Interactions. Antiviral Research 1990, 14:181-205) Three-dimensional surface graphs of each experiment were generated and analyzed using an Excel spreadsheet program adapted from the MacSynergy II spreadsheet (University of Alabama, Birmingham, AL). The X-axis and Y-axis of each surface graph represent the concentrations of the two test compounds, and the Z-axis represents the difference between measured inhibition and a theoretically determined additive inhibition. For an additive relationship, the surface graph resembles a horizontal plane at Z=0, whereas positive surface peaks indicate greater inhibition than expected and therefore synergy, and negative surface peaks indicate less inhibition than expected and therefore antagonism.
Synergy and antagonism volumes were calculated separately as the summed volumes of peaks respectively above and below the Z=0 plane. Volumes were determined using 95% confidence limits to assure significance.
Inhibition was analyzed by the method of Chou and Talalay (Chou, T.-C. and P. Talalay. Analysis of Combined Drug Effects: A New Look at a Very Old Problem. Trends Pharmacol. Sci. 1983, 4:450-454; Chou, T. C. Theoretical basis, experimental design, and computerized simulation of synergism and antagonism in drug combination studies. Pharmacological Reviews 2006, 58:621-681). Analysis using the median-effect equation of Chou and Talalay was performed with CompuSyn software (ComboSyn, Inc, Paramus, NJ). […] Three constant ratios were analyzed in each experiment, centered approximately at the ratio of the individual IC50 values for the two compounds and ranging two-fold higher and lower. […] Combination index (CI) values were determined at inhibition values of 50%, 75%, and 90%. Interactions were considered additive for CI values between 0.9 and 1.1. […] Interactions were considered slightly antagonistic for CI values between 1.1 and 1.2, moderately antagonistic for CI values between 1.2 and 1.45; antagonistic for CI values between 1.45 and 3.3, and strongly antagonistic for CI values between 3.3 and 10.
Compstatin was obtained from Tocris Bioscience (Bristol, UK). The murine monoclonal antibody to human C5, isotype IgGIK, was obtained as product number A217 from Quidel (San Diego, CA). FUT-175 (nafamostat) was obtained from Calbiochem EMD Millipore (Billerica, MA).
Anti-C5 (murine monoclonal antibody to human C5, isotype IgGIK, product No. A217 from Quidel, San Diego, CA) was obtained as a 1.1 mg/mL stock in buffered saline. Gelatin veronal buffer (GVB) without Ca^++ and Mg (GVB^0), 100 mM MgCl2+100 mM EGTA (MgEGTA), normal human serum (NHS), and 5×10^8/mL rabbit erythrocytes (Er) were obtained from Complement Technology Inc. (Tyler, TX).
GVB^0·MgEGTA was prepared by mixing GVB^0 and 100 mM MgEGTA in a 9:1 ratio. Er cells were used within two weeks of purchase; before each assay cells were collected by centrifugation at 800×g and 4° C. for 3 minutes and the buffer was replaced with equal volume fresh cold GVB^0·MgEGTA.
Each of the 64 possible combinations of compounds at varying concentrations was tested in duplicate or triplicate wells. […] 50 μL GVB^0·MgEGTA was added to each well, followed by 50 μL 20% NHS in GVB^0·MgEGTA. The plates were sealed, mixed on a microtiter plate shaker, and incubated at 37° C. for 15 minutes. 20 μL Er was then added to each well and the plates were sealed, mixed, and incubated at 37° C. for 30 minutes with an added shaking at 15 minutes. The following controls were each included in quadruplicate: 2.4 μL DMSO+120 μL GVB^0·MgEGTA (representing background signal); 2.4 μL DMSO+100 μL GVB^0·MgEGTA+20 μL Er (no serum, representing 0% CAP-mediated lysis); 2.4 μL DMSO+50 μL GVB^0·MgEGTA+50 μL 20% NHS+20 μL Er (no compound, representing 100% CAP-mediated lysis); and 2.4 μL DMSO+100 μL H2O+20 μL Er (osmotic lysis, representing maximal lysis). […]

[1] = Experiment 2, Compstatin 0-30 μM
[2] = Experiment 3, Compstatin 0-30 μM
[3] = Experiment 4, Compstatin 0-30 μM

CC(=O)c1nn(CC(=O)N2C[C@H](F)C[C@H]2C(=O)Nc2cccc(Br)n2)c2ccc(-c3cnc(C)nc3)cc12 [Compound 1, (2S,4R)-1-(2-(3-acetyl-5-(2-methylpyrimidin-5-yl)-1H-indazol-1-yl)acetyl)-N-(6-bromopyridin-2-yl)-4-fluoropyrrolidine-2-carboxamide]
inhibition at 0.00234 µM [1]: 0% | inhibition at 0.00234 µM (Experiment 2, FUT-175 0-40 μM): 5% | inhibition at 0.00469 µM [1]: 0% | inhibition at 0.00469 µM (Experiment 2, FUT-175 0-40 μM): 7% | inhibition at 0.00938 µM [1]: 3.2% | inhibition at 0.00938 µM (Experiment 2, FUT-175 0-40 μM): 13% | inhibition at 0.0188 µM [1]: 16% | inhibition at 0.0188 µM (Experiment 2, FUT-175 0-40 μM): 31% | inhibition at 0.0375 µM [1]: 45% | inhibition at 0.0375 µM (Experiment 2, FUT-175 0-40 μM): 70% | inhibition at 0.075 µM [1]: 72% | inhibition at 0.15 µM [1]: 91% | inhibition at 0.15 µM (Experiment 2, FUT-175 0-40 μM): 98% | inhibition at 0.75 µM (Experiment 2, FUT-175 0-40 μM): 95% | inhibition at 0.00234 µM [2]: 3% | inhibition at 0.00234 µM (Experiment 3, FUT-175 0-40 μM): 11% | inhibition at 0.00469 µM [2]: 7.7% | inhibition at 0.00469 µM (Experiment 3, FUT-175 0-40 μM): 17% | inhibition at 0.00938 µM [2]: 22% | inhibition at 0.00938 µM (Experiment 3, FUT-175 0-40 μM): 32% | inhibition at 0.0188 µM [2]: 41% | inhibition at 0.0188 µM (Experiment 3, FUT-175 0-40 μM): 54% | inhibition at 0.037 µM (Experiment 3, Compound 1 0.037 μM, FUT-175 0-40 μM): 94% | inhibition at 0.0375 µM [2]: 73% | inhibition at 0.075 µM [2]: 96% | inhibition at 0.15 µM [2]: 98% | inhibition at 0.15 µM (Experiment 3, FUT-175 0-40 μM): 98% | inhibition at 0.75 µM (Experiment 3, FUT-175 0-40 μM): 98% | inhibition at 0.00234 µM [3]: 0.8% | inhibition at 0.00469 µM [3]: 7.1% | inhibition at 0.00938 µM [3]: 20% | inhibition at 0.0188 µM [3]: 41% | inhibition at 0.0375 µM [3]: 81% | inhibition at 0.075 µM [3]: 97% | inhibition at 0.15 µM [3]: 99% | inhibition at 0.00234 µM (Experiment #1, FUT-175 0-40 μM): 4.5% | inhibition at 0.00469 µM (Experiment #1, FUT-175 0-40 μM): 8.3% | inhibition at 0.0093 µM (Experiment #1, Compound 1 0.0093 μM, FUT-175 0-40 μM): 16% | inhibition at 0.0188 µM (Experiment #1, FUT-175 0-40 μM): 31% | inhibition at 0.0234 µM (Experiment #1, Compound 1 0.0234 μM, Compstatin 0-30 μM): 27% | inhibition at 0.0375 µM (Experiment #1, FUT-175 0-40 μM): 44% | inhibition at 0.0469 µM (Experiment #1, Compound 1 0.0469 μM, Compstatin 0-30 μM): 44% | inhibition at 0.0938 µM (Experiment #1, Compound 1 0.0938 μM, Compstatin 0-30 μM): 75% | inhibition at 0.15 µM (Experiment #1, FUT-175 0-40 μM): 96% | inhibition at 0.188 µM (Experiment #1, Compound 1 0.188 μM, Compstatin 0-30 μM): 91% | inhibition at 0.375 µM (Experiment #1, Compound 1 0.375 μM, Compstatin 0-30 μM): 98% | inhibition at 0.75 µM (Experiment #1, Compstatin 0-30 μM): 98% | inhibition at 0.75 µM (Experiment #1, FUT-175 0-40 μM): 79% | inhibition at 1.5 µM (Experiment #1, Compound 1 1.5 μM, Compstatin 0-30 μM): 98%
